In general, IC50 refers to the concentration at which inhibition is half-maximal.

Chain of PARP7 (Q7Z3E1 whole entry): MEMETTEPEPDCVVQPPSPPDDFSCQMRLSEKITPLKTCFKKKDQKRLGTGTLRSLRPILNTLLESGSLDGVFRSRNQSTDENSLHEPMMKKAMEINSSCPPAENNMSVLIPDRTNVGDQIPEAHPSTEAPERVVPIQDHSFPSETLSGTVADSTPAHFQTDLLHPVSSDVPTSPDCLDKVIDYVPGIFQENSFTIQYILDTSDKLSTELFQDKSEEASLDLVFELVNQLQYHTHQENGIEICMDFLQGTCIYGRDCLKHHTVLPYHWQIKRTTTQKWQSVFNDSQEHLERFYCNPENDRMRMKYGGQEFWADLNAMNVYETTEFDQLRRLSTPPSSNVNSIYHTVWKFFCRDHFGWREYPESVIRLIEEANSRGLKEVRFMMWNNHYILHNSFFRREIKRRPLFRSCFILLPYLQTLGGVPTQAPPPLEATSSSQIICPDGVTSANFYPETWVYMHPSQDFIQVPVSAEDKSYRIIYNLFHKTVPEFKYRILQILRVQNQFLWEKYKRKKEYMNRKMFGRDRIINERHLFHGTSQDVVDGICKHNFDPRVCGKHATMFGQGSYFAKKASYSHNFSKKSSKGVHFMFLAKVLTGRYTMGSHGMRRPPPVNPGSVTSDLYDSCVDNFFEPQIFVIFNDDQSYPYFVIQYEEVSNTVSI

This assay deals with PARP7 (Homo sapiens (Human), UniProt Q7Z3E1). Put plainly: In vitro enzymology experiment of PARP7 (enzymatic inhibition). It is filed as biochemical. The protocol:
II. In Vitro Enzymology Experiment of PARP2, 3, 5A, 5B, 7, 12, and 15
1. Preparation of 384-well histone-coated plate: 25 μL of histone solution was added to each well, and the plate was incubated overnight at 4° C.
2. Preparation of PBST buffer, blocking buffer, and assay buffer
3. The 384-well histone-coated plate was washed three times with PBST buffer. The plate was blocked by 50 μL of blocking buffer for 1 hour at room temperature. The plate was then washed three times with PBST buffer.
2000× compound was prepared in a 96-well source plate. 50 nL of the compound was transferred from the source plate to a 96-well intermediate plate, and 39.95 μL of assay buffer was added to each well. The plate was shaken well and centrifuged at 1000 rpm for 1 minute.
5 μL of compound DMSO solution was transferred to each well.
An enzyme mixture was incubated at 25° C. for 10 minutes.
10 μL of the enzyme mixture was added, and incubated with the compound at room temperature for 10 minutes.
10 μL of assay buffer was added to the negative control well of the assay plate.
The plate was then washed three times with PBST buffer.
25 μL of Stre-HRP was added.
The plate was incubated at room temperature for 1 hour and washed three times with PBS buffer.
25 μL of QuantaRed Enhancer mix was added. The plate was incubated for 10 minutes.
2.5 μL of QuantaRed Stop Solution was added to terminate the peroxidase reaction, and the plate was shaken for 10 to 30 seconds.
7. Paradigm was used to read the plate immediately to detect the readings at Ex550/Em620.
Using equation (1) to fit the data in Excel to obtain inhibition values
Using equation (2) to fit the data in XL-Fit to obtain IC50 values
Y is the percentage of inhibition, and X is the compound concentration.
`O=C(c1cc(Cc2c[nH]c(=O)c(C(F)(F)F)c2)ccc1F)N1CCN(c2ncc(C(F)(F)F)cn2)CC1` [Example 40, 5-(4-Fluoro-3-(4-(5-(trifluoromethyl)pyrimidin-2-yl)piperazine-1-carbonyl)benzyl)-3-(trifluoromethyl)pyridin-2(1H)-one] came in with a half-maximal inhibitory concentration (IC50) of 0.7 nM.

`O=C(OCC1(c2c[nH]c(=O)c(C(F)(F)F)c2)CC1)N1CCN(c2ncc(C(F)(F)F)cn2)CC1` [Example 41, (1-(6-Oxo-5-(trifluoromethyl)-1,6-dihydropyridin-3-yl)cyclopropyl)methyl 4-(5-(trifluoromethyl)pyrimidin-2-yl)piperazine-1-carboxylate] had a concentration for half-maximal inhibition (IC50) of 1.1 nM. The compound `CC(Cc1c[nH]c(=O)c(C(F)(F)F)c1)OC(=O)N1CCN(c2ncccn2)CC1` (stereo not drawn) [Example 42, 1-(6-Oxo-5-(trifluoromethyl)-1,6-dihydropyridin-3-yl)propan-2-yl 4-(pyrimidin-2-yl)piperazine-1-carboxylate] came in with an IC50 of 1.46 nM.

Regarding `Cc1cnc(N2CCN(C(=O)OC(C)Cc3c[nH]c(=O)c(C(F)(F)F)c3)CC2)nc1` (stereo not drawn) [Example 43, 1-(6-Oxo-5-(trifluoromethyl)-1,6-dihydropyridin-3-yl)propan-2-yl 4-(5-methylpyrimidin-2-yl)piperazine-1-carboxylate], the concentration for half-maximal inhibition (IC50) came to 0.9 nM. Take `CC(Cc1c[nH]c(=O)c(C(F)(F)F)c1)OC(=O)N1CCN(c2ncc(Cl)cn2)CC1` (stereo not drawn) [Example 44, 1-(6-Oxo-5-(trifluoromethyl)-1,6-dihydropyridin-3-yl)propan-2-yl 4-(5-chloropyrimidin-2-yl)piperazine-1-carboxylate]: the IC50 was found to be 0.8 nM. As for `CC(Cc1c[nH]c(=O)c(C(F)(F)F)c1)OC(=O)N1CCN(c2ncc(C#N)cn2)CC1` (stereo not drawn) [Example 45, 1-(6-Oxo-5-(trifluoromethyl)-1,6-dihydropyridin-3-yl)propan-2-yl 4-(5-cyanopyrimidine-2-yl)piperazine-1-carboxylate], the figure is 2.26 nM; as for `CC(Cc1c[nH]c(=O)c(C(F)(F)F)c1)OC(=O)N1CCN(c2ncccc2C#N)CC1` (stereo not drawn) [Example 46, 1-(6-Oxo-5-(trifluoromethyl)-1,6-dihydropyridin-3-yl)propan-2-yl 4-(3-cyanopyridin-2-yl)piperazine-1-carboxylate], 1.94 nM; as for `O=C(CCO[C@@H]1CCC[C@@H]1c1c[nH]c(=O)c(C(F)(F)F)c1)N1CCN(c2ncc(C(F)(F)F)cn2)CC1` [Example 47, 5-((1R,2R)-2-(3-Oxo-3-(4-(5-(trifluoromethyl)pyrimidin-2-yl)piperazin-1-yl)propoxy)cyclopentyl)-3-(trifluoromethyl)pyridin-2(1H)-one], 7.22 nM. Take `C[C@@H](Cc1c[nH]c(=O)c(C(F)(F)F)c1)OC(=O)N1CCN(c2ncc(C(F)(F)F)s2)CC1` [Example 49, (S)-1-(6-Oxo-5-(trifluoromethyl)-1,6-dihydropyridin-3-yl)propan-2-yl 4-(5-(trifluoromethyl)thiazol-2-yl)piperazine-1-carboxylate]: the IC50 worked out at 0.76 nM. As for `C[C@@H](Cc1c[nH]c(=O)c(C(F)(F)F)c1)OC(=O)N1CCN(c2ncc(C(F)F)cn2)CC1` [Example 50, (S)-1-(6-Oxo-5-(trifluoromethyl)-1,6-dihydropyridin-3-yl)propan-2-yl 4-(5-(difluoromethyl)pyrimidin-2-yl)piperazine-1-carboxylate], the figure is 0.52 nM. The same measure for `C[C@@H](Cc1c[nH]c(=O)c(C(F)(F)F)c1)OC(=O)N[C@H]1CCN(c2ncc(C(F)(F)F)cn2)C1` [Example 51, (S)-1-(6-Oxo-5-(trifluoromethyl)-1,6-dihydropyridin-3-yl)propan-2-yl ((S)-1-(5-(trifluoromethyl)pyrimidin-2-yl)pyrrolidin-3-yl)carbamate]: 1.34 nM; for `C[C@@H](Cc1c[nH]c(=O)c(C(F)(F)F)c1)OC(=O)N[C@@H]1CCN(c2ncc(C(F)(F)F)cn2)C1` [Example 52, (S)-1-(6-Oxo-5-(trifluoromethyl)-1,6-dihydropyridin-3-yl)propan-2-yl ((R)-1-(5-(trifluoromethyl)pyrimidin-2-yl)pyrrolidin-3-yl)carbamate]: 1.18 nM; for `C[C@@H](Cc1c[nH]c(=O)c(C(F)(F)F)c1)OC(=O)N1CC[C@@H](Nc2ncc(C(F)(F)F)cn2)C1` [Example 53, (S)-1-(6-Oxo-5-(trifluoromethyl)-1,6-dihydropyridin-3-yl)propan-2-yl (R)-3-((5-(trifluoromethyl)pyrimidin-2-yl)amino) pyrrolidine-1-carboxylate]: 2.3 nM. As for `C[C@@H](Cc1c[nH]c(=O)c(C(F)(F)F)c1)OC(=O)N1CC(Nc2ncc(C(F)(F)F)cn2)C1` [Example 54, (S)-1-(6-Oxo-5-(trifluoromethyl)-1,6-dihydropyridin-3-yl)propan-2-yl 3-((5-(trifluoromethyl)pyrimidin-2-yl)amino) azetidine-1-carboxylate], the IC50 is 6.23 nM. As for `C[C@@H](Cc1c[nH]c(=O)c(C(F)(F)F)c1)OC(=O)NC1CCN(c2ncc(C(F)(F)F)cn2)CC1` [Example 55, (S)-1-(6-Oxo-5-(trifluoromethyl)-1,6-dihydropyridin-3-yl)propan-2-yl (1-(5-(trifluoromethyl)pyrimidin-2-yl)piperidin-4-yl)carbamate], the figure is 3.42 nM; as for `O=C(O[C@H]1CCC[C@@H]1c1c[nH]c(=O)c(C(F)(F)F)c1)N1CCN(c2ncc(C(F)(F)F)cn2)CC1` [Example 56, (1S,2R)-2-(6-Oxo-5-(trifluoromethyl)-1,6-dihydropyridin-3-yl)cyclopentyl 4-(5-(trifluoromethyl)pyrimidin-2-yl)piperazine-1-carboxylate], 2.27 nM; as for `O=C(CO[C@H]1CCC[C@@H]1c1c[nH]c(=O)c(C(F)(F)F)c1)N1CCN(c2ncc(C(F)(F)F)cn2)CC1` [Example 57, 5-((1R,2S)-2-(2-Oxo-2-(4-(5-(trifluoromethyl)pyrimidin-2-yl)piperazin-1-yl)ethoxy)cyclopentyl)-3-(trifluoromethyl)pyridin-2(1H)-one], 0.74 nM. `O=C(COCC1CCCC1c1c[nH]c(=O)c(C(F)(F)F)c1)N1CCN(c2ncc(C(F)(F)F)cn2)CC1` (stereo not drawn) [Example 58, 5-(2-((2-Oxo-2-(4-(5-(trifluoromethyl)pyrimidin-2-yl)piperazin-1-yl)ethoxy)methyl)cyclopentyl)-3-(trifluoromethyl)pyridin-2(1H)-one]: the IC50 turned out to be 3.18 nM. The same measure for `O=C(OCC1CCCC1c1c[nH]c(=O)c(C(F)(F)F)c1)N1CCN(c2ncc(C(F)(F)F)cn2)CC1` (stereo not drawn) [Example 59, (2-(6-Oxo-5-(trifluoromethyl)-1,6-dihydropyridin-3-yl)cyclopentyl)methyl 4-(5-(trifluoromethyl)pyrimidin-2-yl)piperazine-1-carboxylate]: 1.06 nM; for `CC(C(=O)N1CCN(c2ncc(C(F)(F)F)cn2)CC1)c1c[nH]c(=O)c(C(F)(F)F)c1` (stereo not drawn) [Example 60, 5-(1-Oxo-1-(4-(5-(trifluoromethyl)pyrimidin-2-yl)piperazin-1-yl)propan-2-yl)-3-(trifluoromethyl)pyridin-2(1H)-one]: 7.02 nM; for `Cc1cc(Cc2c[nH]c(=O)c(C(F)(F)F)c2)cc(C(=O)N2CCN(c3ncc(C(F)(F)F)cn3)CC2)c1` [Example 61, 5-(3-Methyl-5-(4-(5-(trifluoromethyl)pyrimidin-2-yl)piperazine-1-carbonyl)benzyl)-3-(trifluoromethyl)pyridin-2(1H)-one]: 0.72 nM.

The record behind these values is patent publication US20240351997A1, “NOVEL PARP7 INHIBITOR AND USE THEREOF” (SHANGHAI QILU PHARMACEUTICAL RESEARCH AND DEVELOPMENT …, priority 2021, published 2024).
